Here are results for 26 compounds from ChEMBL document CHEMBL5346910, “N-sulfonyl peptide-hybrids as a new class of dengue virus protease inhibitors” (Eur J Med Chem, 2023).

As usually defined, the inhibition is the relative decrease from the control value, in per cent. What is called CC50 is the concentration that lowers cell viability or growth by half. Read a high CC50 as lower toxicity to the cells. As a reminder, the IC50 is the concentration that inhibits the measured activity by half. A lower IC50 goes with greater potency in that assay. The Ki is a dissociation constant, usually derived from enzyme kinetics or from competition with a known ligand.

For data set [1], the target named is Genome polyprotein (dengue virus type 2) (UniProt P29990). The data set is described as follows: Inhibition of DENV-2 NS2B-NS3 protease at 50 uM by biochemical enzymatic assay relative to control.
Data set [2] has as its target Genome polyprotein (West Nile virus) (UniProt P06935). The data set is described as follows: Inhibition of West Nile virus NS2B-NS3 protease at 50 uM by biochemical enzymatic assay relative to control.
Data set [3] deals with T1, Trypsin (Homo sapiens, UniProt P07477+P07478+P35030). The data set is described as follows: Inhibition of trypsin (unknown origin) at 50 uM by biochemical assay relative to control. In kind it is protein assay.
Data set [4] can be described thus: Cytotoxicity against human HeLa cells by CellTiter-Blue assay. It counts as toxicity, cell-based. (The colour change of resazurin is a common sign of viable cells or microbes.)
Data set [5] deals with Prothrombin (Homo sapiens) (UniProt P00734). The data set can be described thus: Inhibition of Thrombin (unknown origin) at 25 uM by biochemical assay relative to control.
For data set [6], the target named is T2, Genome polyprotein (dengue virus type 2, UniProt P29990). The data set can be described thus: Inhibition of DENV-2 NS2B-NS3 protease by biochemical enzymatic assay.
Data set [7] has as its target T1, Trypsin. The data set is described as follows: Stability of the compound assessed as trypsin (unknown origin) mediated compound degradation incubated for 60 mins by UV-based HPLC analysis. The following applies: 1 h. In kind it is ADME, protein assay.
Data set [8] can be described thus: Metabolic stability in rat liver microsomes measured for 120 mins by UV-based HPLC analysis. It counts as ADME, Microsome. Conditions: 2 h. A general note: Microsomes from liver hold many membrane-bound enzymes, among them those of drug oxidation.
A short description of data set [9]: Stability of the compound assessed as alpha-chymotrypsin (unknown origin) mediated compound degradation incubated for 60 mins by UV-based HPLC analysis. The following applies: human, 1 h. It counts as ADME.
Data set [10] concerns the target Genome polyprotein (West Nile virus, UniProt P06935). The data set can be described thus: Inhibition of West Nile virus NS2B-NS3 protease by biochemical enzymatic assay.
Data set [11] addresses T2, Genome polyprotein. The data set is described as follows: Competitive inhibition of DENV-2 NS2B-NS3 protease assessed as inhibition constant by Cheng-Prusoff plot analysis.

Chain of Genome polyprotein (West Nile virus) (P06935 whole entry): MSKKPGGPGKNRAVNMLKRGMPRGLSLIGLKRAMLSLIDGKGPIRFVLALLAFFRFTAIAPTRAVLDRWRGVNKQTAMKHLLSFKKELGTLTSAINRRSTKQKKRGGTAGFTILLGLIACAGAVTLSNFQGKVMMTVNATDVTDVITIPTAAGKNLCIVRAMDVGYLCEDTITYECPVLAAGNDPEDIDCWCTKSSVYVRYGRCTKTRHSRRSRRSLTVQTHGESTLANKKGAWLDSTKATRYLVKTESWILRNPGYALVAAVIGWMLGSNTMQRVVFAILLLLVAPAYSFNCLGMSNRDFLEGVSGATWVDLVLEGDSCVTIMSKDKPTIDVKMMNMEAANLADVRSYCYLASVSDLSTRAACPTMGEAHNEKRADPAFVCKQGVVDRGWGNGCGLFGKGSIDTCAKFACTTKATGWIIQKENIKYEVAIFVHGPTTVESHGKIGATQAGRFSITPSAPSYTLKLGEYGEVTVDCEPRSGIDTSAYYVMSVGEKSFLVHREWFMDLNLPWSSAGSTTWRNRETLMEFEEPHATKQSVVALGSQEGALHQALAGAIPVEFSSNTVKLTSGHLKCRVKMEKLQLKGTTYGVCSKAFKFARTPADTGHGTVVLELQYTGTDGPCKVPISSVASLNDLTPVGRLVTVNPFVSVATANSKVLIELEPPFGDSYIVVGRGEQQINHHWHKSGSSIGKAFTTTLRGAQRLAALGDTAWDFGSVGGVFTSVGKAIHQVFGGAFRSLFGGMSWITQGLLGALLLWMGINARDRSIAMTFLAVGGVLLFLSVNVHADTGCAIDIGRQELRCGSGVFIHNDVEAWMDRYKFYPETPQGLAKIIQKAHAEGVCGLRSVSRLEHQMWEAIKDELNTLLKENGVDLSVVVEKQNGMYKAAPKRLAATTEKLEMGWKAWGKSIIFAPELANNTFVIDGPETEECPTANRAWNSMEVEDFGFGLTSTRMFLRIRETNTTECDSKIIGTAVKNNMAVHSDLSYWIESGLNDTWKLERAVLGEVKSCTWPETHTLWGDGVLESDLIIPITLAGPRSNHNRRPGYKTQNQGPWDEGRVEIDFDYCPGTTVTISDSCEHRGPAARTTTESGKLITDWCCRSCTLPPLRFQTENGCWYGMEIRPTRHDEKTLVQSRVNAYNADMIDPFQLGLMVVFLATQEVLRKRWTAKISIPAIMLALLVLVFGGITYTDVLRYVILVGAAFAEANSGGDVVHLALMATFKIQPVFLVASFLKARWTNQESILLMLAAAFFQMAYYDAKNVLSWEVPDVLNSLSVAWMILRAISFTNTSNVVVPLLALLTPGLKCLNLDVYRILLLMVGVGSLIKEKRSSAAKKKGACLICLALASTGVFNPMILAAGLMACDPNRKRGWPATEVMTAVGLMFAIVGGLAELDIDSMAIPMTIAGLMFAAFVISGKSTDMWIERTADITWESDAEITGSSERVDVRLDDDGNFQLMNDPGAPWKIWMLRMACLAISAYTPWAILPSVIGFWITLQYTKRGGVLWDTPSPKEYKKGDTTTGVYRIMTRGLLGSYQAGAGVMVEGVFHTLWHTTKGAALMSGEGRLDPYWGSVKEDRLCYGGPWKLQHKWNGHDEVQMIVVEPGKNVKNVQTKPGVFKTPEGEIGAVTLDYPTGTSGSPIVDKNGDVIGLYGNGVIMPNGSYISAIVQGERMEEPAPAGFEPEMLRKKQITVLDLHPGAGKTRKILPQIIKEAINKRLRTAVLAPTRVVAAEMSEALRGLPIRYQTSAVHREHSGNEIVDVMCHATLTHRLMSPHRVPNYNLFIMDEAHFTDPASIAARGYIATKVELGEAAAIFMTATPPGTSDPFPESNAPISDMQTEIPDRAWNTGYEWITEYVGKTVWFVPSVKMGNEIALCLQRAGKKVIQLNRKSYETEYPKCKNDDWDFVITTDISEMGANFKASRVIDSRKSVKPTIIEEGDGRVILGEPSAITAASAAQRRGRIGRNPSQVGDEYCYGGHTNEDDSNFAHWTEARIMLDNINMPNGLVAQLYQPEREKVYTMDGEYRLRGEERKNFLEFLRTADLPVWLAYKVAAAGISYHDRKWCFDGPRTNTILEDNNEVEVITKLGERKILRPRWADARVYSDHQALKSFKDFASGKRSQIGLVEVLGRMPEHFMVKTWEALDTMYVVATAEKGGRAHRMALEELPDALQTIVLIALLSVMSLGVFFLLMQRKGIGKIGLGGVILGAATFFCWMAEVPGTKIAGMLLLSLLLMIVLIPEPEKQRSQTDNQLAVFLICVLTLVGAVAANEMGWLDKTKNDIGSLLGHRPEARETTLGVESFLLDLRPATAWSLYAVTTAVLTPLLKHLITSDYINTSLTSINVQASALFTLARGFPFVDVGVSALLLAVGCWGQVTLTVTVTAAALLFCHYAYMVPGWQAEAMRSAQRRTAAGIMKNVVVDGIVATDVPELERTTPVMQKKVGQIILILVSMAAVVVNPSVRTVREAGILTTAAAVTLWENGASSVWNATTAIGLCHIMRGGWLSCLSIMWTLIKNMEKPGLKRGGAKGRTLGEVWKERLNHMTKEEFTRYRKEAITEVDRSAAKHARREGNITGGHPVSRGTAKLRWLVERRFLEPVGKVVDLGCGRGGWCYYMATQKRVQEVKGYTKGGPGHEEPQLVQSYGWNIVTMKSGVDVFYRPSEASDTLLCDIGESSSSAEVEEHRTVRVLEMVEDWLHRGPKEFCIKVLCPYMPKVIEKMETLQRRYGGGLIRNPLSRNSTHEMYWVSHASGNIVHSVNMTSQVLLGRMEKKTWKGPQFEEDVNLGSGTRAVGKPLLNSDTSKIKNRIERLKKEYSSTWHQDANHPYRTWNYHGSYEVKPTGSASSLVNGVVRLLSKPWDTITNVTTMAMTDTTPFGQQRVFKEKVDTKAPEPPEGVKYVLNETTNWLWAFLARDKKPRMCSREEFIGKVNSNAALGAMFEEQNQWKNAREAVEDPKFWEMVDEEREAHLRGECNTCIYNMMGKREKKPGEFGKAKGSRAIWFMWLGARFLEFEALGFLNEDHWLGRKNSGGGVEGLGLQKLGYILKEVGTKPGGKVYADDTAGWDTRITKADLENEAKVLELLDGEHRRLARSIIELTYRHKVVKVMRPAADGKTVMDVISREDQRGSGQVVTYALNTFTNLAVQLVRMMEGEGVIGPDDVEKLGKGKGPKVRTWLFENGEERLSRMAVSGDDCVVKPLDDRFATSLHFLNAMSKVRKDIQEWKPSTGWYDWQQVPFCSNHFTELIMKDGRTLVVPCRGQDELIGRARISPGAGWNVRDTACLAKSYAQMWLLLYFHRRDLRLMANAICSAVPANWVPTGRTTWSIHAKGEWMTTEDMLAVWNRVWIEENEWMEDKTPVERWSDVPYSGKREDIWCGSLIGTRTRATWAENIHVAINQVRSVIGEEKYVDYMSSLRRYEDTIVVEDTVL
Chain of Genome polyprotein (West Nile virus, UniProt P06935) (P06935 1371-1501 limits assumed): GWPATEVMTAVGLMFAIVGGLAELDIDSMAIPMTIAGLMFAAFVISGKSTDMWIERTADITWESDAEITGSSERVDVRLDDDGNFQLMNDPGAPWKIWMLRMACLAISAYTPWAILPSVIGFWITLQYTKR
Chain of Genome polyprotein (West Nile virus, UniProt P06935) (P06935 1502-2120 limits assumed): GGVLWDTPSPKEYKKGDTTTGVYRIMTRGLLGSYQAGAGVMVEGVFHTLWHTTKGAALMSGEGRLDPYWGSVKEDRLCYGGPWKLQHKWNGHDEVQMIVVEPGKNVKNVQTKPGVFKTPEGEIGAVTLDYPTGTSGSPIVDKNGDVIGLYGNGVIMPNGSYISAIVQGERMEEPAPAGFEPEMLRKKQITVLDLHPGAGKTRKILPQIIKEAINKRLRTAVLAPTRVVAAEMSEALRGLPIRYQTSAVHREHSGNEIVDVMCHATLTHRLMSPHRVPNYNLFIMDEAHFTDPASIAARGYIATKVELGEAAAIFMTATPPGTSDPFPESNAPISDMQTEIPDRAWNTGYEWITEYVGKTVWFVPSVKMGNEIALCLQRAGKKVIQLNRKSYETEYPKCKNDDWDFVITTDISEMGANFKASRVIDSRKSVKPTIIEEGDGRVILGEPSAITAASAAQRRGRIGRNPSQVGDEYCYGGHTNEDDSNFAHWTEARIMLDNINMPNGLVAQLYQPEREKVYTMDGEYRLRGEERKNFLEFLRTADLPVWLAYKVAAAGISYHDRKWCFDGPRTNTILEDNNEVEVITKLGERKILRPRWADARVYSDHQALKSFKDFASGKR

Consider `Cc1cc(C)c(S(=O)(=O)N[C@@H](CCCNC(=N)N)C(=O)N[C@@H](CCCCN)C(=O)N[C@@H](C(N)=O)c2ccccc2)c(C)c1`, for which the inhibition was 35.9% in [1], under 10% in data set [2], under 10% on Trypsin [3] and under 10% in [5]. In data set [4], this compound came in with a CC50 of over 50 µM.
For `CN([C@@H](Cc1ccc(/C(N)=N/O)cc1)C(=O)N[C@@H](CCCCN)C(=O)N[C@@H](C(N)=O)c1ccccc1)S(=O)(=O)c1ccccc1`, the inhibition is 58.5% in data set [1], under 10% in data set [2], under 10% at Trypsin [3] and under 10% in data set [5]. Moreover, in data set [4], the CC50 was over 50 µM.
For the compound `CN([C@@H](Cc1ccc(C(=N)N)cc1)C(=O)N[C@@H](CCCCN)C(=O)N[C@@H](C(N)=O)c1ccc(O)cc1)S(=O)(=O)c1ccccc1`, the inhibition was 101% in [1], 33.7% in data set [2], 14.7% on Trypsin [3] and 30.3% in data set [5]. Half-maximal inhibition against Genome polyprotein [6] (IC50) required 0.44 µM.
In the same order, the values of `CN([C@@H](Cc1cccc(NC(=N)N)c1)C(=O)N[C@@H](CCCCN)C(=O)N[C@@H](C(N)=O)c1ccccc1)S(=O)(=O)c1ccccc1` are 78.6%, 10.1%, under 10%, 30.2% and 13.2 µM.
With `CN([C@@H](Cc1cccc(N)c1)C(=O)N[C@@H](CCCCN)C(=O)N[C@@H](C(N)=O)c1ccccc1)S(=O)(=O)c1ccccc1`, the inhibition is 20.4% in [1], under 10% in [2], under 10% on Trypsin [3] and under 10% in data set [5].
Turning to `CN(C)C(=O)COC(=O)Cc1ccc(OC(=O)c2ccc(NC(=N)N)cc2)cc1`, the inhibition in [5] came out at 99%.
On to `CC(C)c1cc(C(C)C)c(S(=O)(=O)N[C@@H](CCCNC(=N)N)C(=O)N[C@@H](CCCCN)C(=O)N[C@@H](C(N)=O)c2ccccc2)c(C(C)C)c1`, for which the inhibition in [1] is 20.2%; in data set [2] it was under 10%; against Trypsin [3], under 10%; in data set [5] it was under 10%. The compound further showed a CC50 in data set [4] of over 50 µM.
For `CN(C)c1cccc2c(S(=O)(=O)N[C@@H](CCCNC(=N)N)C(=O)N[C@@H](CCCCN)C(=O)N[C@@H](C(N)=O)c3ccccc3)cccc12`, the inhibition in data set [1] was 35.3%; in data set [2], under 10%; on Trypsin [3], 10.7%; in data set [5], 2.3%. In data set [4], this compound yielded a CC50 of over 50 µM.
Regarding `CN([C@@H](CCCNC(=N)N)C(=O)N[C@@H](CCCCN)C(=O)N[C@@H](C(N)=O)c1ccccc1)S(=O)(=O)c1ccccc1`, the inhibition in data set [1] was 80.6%; in data set [2], under 10%; on Trypsin [3], under 10%; in data set [5], under 10%. Besides, the Stability entry (on Trypsin [7]; in [8]; in [9]) was “Stable” in each case. In addition, the CC50 in data set [4] was over 50 µM. The compound further returned an IC50 at Genome polyprotein [6] of 11 µM.
In the case of `N=C(N)NCCC[C@H](NS(=O)(=O)C1CCCCC1)C(=O)N[C@@H](CCCCN)C(=O)N[C@@H](C(N)=O)c1ccccc1`, the inhibition in data set [1] was 65.2%; in [2], under 10%; at Trypsin [3], 17.4%; in data set [5] it was under 10%. The CC50 in data set [4] was over 50 µM.
As for `N=C(N)NCCC[C@H](NS(=O)(=O)c1ccc([N+](=O)[O-])cc1)C(=O)N[C@@H](CCCCN)C(=O)N[C@@H](C(N)=O)c1ccccc1`, the inhibition in data set [1] is 24.7%; in data set [2], 18.4%; on Trypsin [3], 30.6%; in [5] it was under 10%. The CC50 in data set [4] is over 50 µM.
The compound `N=C(N)NCCC[C@H](NC(=O)c1ccccc1)C(=O)N[C@@H](CCCCN)C(=O)N[C@@H](C(N)=O)c1ccc(OCc2ccccc2)cc1` yielded a CC50 in data set [4] of over 50 µM. In addition, the inhibition in data set [5] was under 10%.
With `CN([C@@H](Cc1ccc(C(=N)N)cc1)C(=O)N[C@@H](CCCCN)C(=O)N[C@@H](C(N)=O)c1ccc(OCc2ccc(C(F)(F)F)cc2)cc1)S(=O)(=O)c1ccccc1`, the inhibition in data set [1] was determined as 99.2%; in data set [2], 80.4%; on Trypsin [3], 18.3%; in data set [5], 15.8%. Besides, the CC50 in data set [4] was determined as 75.3 µM. Moreover, the IC50 stood at 13.9 µM against Genome polyprotein [10] and 0.12 µM against Genome polyprotein [6].
For `N=C(N)NCCC[C@H](NS(=O)(=O)c1ccc(Cl)cc1)C(=O)N[C@@H](CCCCN)C(=O)N[C@@H](C(N)=O)c1ccccc1`, the inhibition is 44.5% in data set [1], 15.5% in [2], under 10% against Trypsin [3] and under 10% in data set [5]. The compound also had a CC50 in data set [4] of over 50 µM.
`CN([C@@H](CCCNC(=N)N)C(=O)N[C@@H](CCCCN)C(=O)N[C@@H](C(N)=O)c1ccccc1)S(=O)(=O)c1ccc(Cl)cc1`: the inhibition in [1] was 75.1%; in data set [2], under 10%; against Trypsin [3] it was 13%; in [5], under 10%. At Genome polyprotein [6], this compound showed an IC50 of 19.4 µM.
For `CC[C@H](NC(=O)[C@H](Cc1cccc(NC(=N)N)c1)N(C)S(=O)(=O)c1ccc(C)cc1)C(=O)N[C@@H](C(N)=O)c1ccccc1`, the inhibition is 74.3% in data set [1], under 10% in [2], under 10% against Trypsin [3] and 18.1% in data set [5]. In addition, the IC50 against Genome polyprotein [6] is 18.9 µM.
Consider `Cc1ccc(S(=O)(=O)N(C)[C@@H](Cc2ccc(NC(=N)N)cc2)C(=O)N[C@@H](CCCCN)C(=O)N[C@@H](C(N)=O)c2ccccc2)cc1`, for which the inhibition is 95% in [1], under 10% in data set [2], 19.9% on Trypsin [3] and under 10% in [5]. Moreover, the CC50 in data set [4] is over 50 µM. Further, the IC50 on Genome polyprotein [6] was 1.63 µM.
For the compound `N=C(N)NCCC[C@H](NS(=O)(=O)c1ccccc1)C(=O)N[C@@H](CCCCN)C(=O)N[C@@H](C(N)=O)c1ccccc1`, the inhibition in [1] is 44.3%; in data set [2], 22.3%; on Trypsin [3], under 10%; in [5] it was under 10%. The compound also gave a CC50 in data set [4] of over 50 µM. Also, in data set [8], the Stability result was “Stable”.
For `Cc1ccc(S(=O)(=O)N(C)[C@@H](CCCNC(=N)N)C(=O)N[C@@H](CCCCN)C(=O)N[C@@H](C(N)=O)c2ccccc2)cc1`, the inhibition in data set [1] was 75.8%; in data set [2], under 10%; at Trypsin [3], 20.3%; in data set [5], under 10%. Besides, in data set [4], the CC50 is over 50 µM. Moreover, the IC50 at Genome polyprotein [6] came out at 17.9 µM.
In the case of `Cc1ccc(S(=O)(=O)N(C)[C@@H](Cc2cccc(N)c2)C(=O)N[C@@H](CCCCN)C(=O)N[C@@H](C(N)=O)c2ccccc2)cc1`, the inhibition was 23.2% in data set [1], under 10% in data set [2], under 10% on Trypsin [3] and under 10% in [5].
Take `Cc1ccc(S(=O)(=O)N[C@@H](CCCNC(=N)N)C(=O)N[C@@H](CCCCN)C(=O)N[C@@H](C(N)=O)c2ccccc2)cc1`: the inhibition in data set [1] was 50.5%; in [2], 17.7%; against Trypsin [3], 21.6%; in data set [5], under 10%. This compound yielded a CC50 in data set [4] of over 50 µM.
`CN([C@@H](CCCNC(=N)N)C(=O)N[C@@H](CCCCN)C(=O)N[C@H](C(N)=O)c1ccccc1)S(=O)(=O)c1ccccc1`: the inhibition in [1] was 75.3%; in data set [2], under 10%; against Trypsin [3], under 10%; in data set [5] it was under 10%. Moreover, in [4], the CC50 is over 50 µM. The compound further came in with an IC50 against Genome polyprotein [6] of 17.6 µM.
For the compound `N=C(N)Nc1ccc(C[C@H](NS(=O)(=O)c2ccccc2)C(=O)N[C@@H](CCCCN)C(=O)N[C@@H](C(N)=O)c2ccccc2)cc1`, the inhibition in data set [1] was 52.6%; in [2], under 10%; against Trypsin [3], under 10%; in data set [5] it was under 10%. Further, the Stability result (on Trypsin [7]; in data set [8]; in data set [9]) was “Stable” each time. The compound further returned a CC50 in [4] of over 50 µM.
`CN([C@@H](Cc1ccc(C(=N)N)cc1)C(=O)N[C@@H](CCCCN)C(=O)N[C@H](C(N)=O)c1ccc(OCc2ccccc2)cc1)S(=O)(=O)c1ccccc1`: the inhibition in data set [1] stood at 102%; in [2], 20.2%; against Trypsin [3], 34.3%; in data set [5], 23.4%. The compound further had an IC50 on Genome polyprotein [6] of 0.2 µM.
`CN([C@@H](Cc1ccc(NC(=N)N)cc1)C(=O)N[C@@H](CCCCN)C(=O)N[C@@H](C(N)=O)c1ccccc1)S(=O)(=O)c1ccccc1`: the inhibition in data set [1] is 97.6%; in [2], 14.9%; on Trypsin [3], 17.1%; in data set [5] it was under 10%. Besides, the Stability entry (on Trypsin [7]; in [8]; in [9]) was “Stable” each time. This compound returned a CC50 in [4] of over 50 µM. For the same compound, the IC50 at Genome polyprotein [6] amounted to 2.72 µM.
`CN([C@@H](Cc1ccc(C(=N)N)cc1)C(=O)N[C@@H](CCCCN)C(=O)N[C@@H](C(N)=O)c1ccc(OCc2ccccc2)cc1)S(=O)(=O)c1ccccc1`: the inhibition in data set [1] stood at 99%; in data set [2], 68.9%; on Trypsin [3], 22%; in data set [5] it was 22.9%. In data set [4], the CC50 was over 200 µM. The IC50 against Genome polyprotein [10] worked out at 22.2 µM; against Genome polyprotein [6], 0.11 µM. The Ki at Genome polyprotein [11] is 0.092 µM.
